Measured values: patent US20060069132A1, “Azolecarboxamide herbicides” (priority 2004, published 2006)
Like-named read-outs stand apart in the source and are kept apart here.

Key:
large crabgrass = assay: Test A pre-/postemergence herbicide test; format: in vivo, Digitaria sanguinalis; settings: for pest or weed control at 500 g/ha / pest or weed control at 2000 g/ha: Digitaria sanguinalis, 240 h
Method in brief: (§1)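 Visual injury scores on a 0–100 scale (100 = complete control) taken about ten days post-treatment in greenhouse against untreated controls; dash means no result. Treatments: preemergence soil spray and postemergence spray to runoff on one- to two-leaf plants 2 to 10 cm tall, surfactant-containing formulation.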

giant foxtail = assay: Test A pre-/postemergence herbicide test; format: in vivo, Setaria faberi; settings: for pest or weed control at 500 g/ha / pest or weed control at 2000 g/ha: Setaria faberi, 240 h
Method in brief: as §1

morningglory = assay: Test A pre-/postemergence herbicide test; format: in vivo, Ipomoea spp.; settings: for pest or weed control at 500 g/ha / pest or weed control at 2000 g/ha: Ipomoea, 240 h
Method in brief: as §1

lambsquarters [1] = assay: Test B pre-/postemergence herbicide test; format: in vivo, Chenopodium album
Method in brief: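 Flooded paddy rice and barnyardgrass were treated at the 2-leaf stage; upland plantings received compound either on sown seed or on 1- to 4-leaf seedlings. All were kept 13–15 days in a greenhouse and scored visually, 0–100, relative to untreated plants.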

johnsongrass = assay: Test C pre-/postemergence herbicide test; format: in vivo, Sorghum halepense; settings: for Johnsongrass plant response rating: 500 g ai/ha
Method in brief: (§2)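 Visual ratings on a 0–100 scale (100 = complete control) made versus untreated controls after 12 to 14 greenhouse days. Test chemicals, formulated in surfactant-containing non-phytotoxic solvent, applied preemergence to planted seeds or postemergence to 1- to 4-leaf plants (2 to 18 cm).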

lambsquarters [2] = assay: Test C pre-/postemergence herbicide test; format: in vivo, Chenopodium album; settings: for Lambsquarters plant response rating: 500 g ai/ha
Method in brief: as §2

[3] = test system: common (oilseed) sunflower; assay: Test C pre-/postemergence herbicide test; format: in vivo, Helianthus annuus; settings: for Plant response rating (0 = no effect, 100 = complete control), Sunflower: 62 g ai/ha; for Plant response rating (0 = no effect, 100 = complete control), Sunflower / Plant response rating, Sunflower: preemergence; for Sunflower plant response rating: Preemergence, 500 g ai/ha, scale 0 to 100, 0 no effect, 100 complete control
Method in brief: as §2

[4] = test system: smallflower umbrella sedge; assay: Test C flooded paddy test; format: in vivo, Cyperus difformis
[5] = Preemergence, scale 0 to 100, 0 no effect, 100 complete control
[6] = Postemergence, 500 g ai/ha, 0 to 100 scale, 0 no effect, 100 complete control
[7] = Postemergence, 2000 g ai/ha, 0 to 100 scale, 0 no effect, 100 complete control
[8] = Preemergence, 500 g ai/ha, visual rating, 0 to 100 scale (0 no effect, 100 complete control)
[9] = Preemergence, 2000 g ai/ha, 0 to 100 scale, 0 no effect, 100 complete control
[10] = 125 g ai/ha, scale 0 (no effect) to 100 (complete control), visual, 12 to 14 days, preemergence
[11] = 250 g ai/ha, scale 0 to 100 (0 no effect, 100 complete control), visual, 12 to 14 days, preemergence
[12] = Postemergence, 250 g ai/ha, scale 0 to 100, 0 no effect, 100 complete control
[13] = postemergence, 62 g ai/ha, scale 0 to 100

CCNC(=O)c1ccc(F)c(NC(=O)c2cc(C(C)(C)C)nn2CC)c1 [Compound 2, 3-(1,1-dimethylethyl)-1-ethyl-N-[5-[(ethylamino)carbonyl]-2-fluorophenyl]-1H-pyrazole-5-carboxamide]
70: Plant response rating (0 = no effect, 100 = complete control), Johnsongrass (johnsongrass; 62 g ai/ha, preemergence)
0: Plant response rating (0 = no effect, 100 = complete control), Sunflower [3] | Sunflower plant response rating [3]
90%: pest or weed control at 500 g/ha (lambsquarters [1]; Chenopodium album, post-emergence, 336 h, Postemergence, 500 g ai/ha, visual rating after 13 to 15 days, scale 0 (no effect) to 100 (complete control), read-out: Plant response rating, Lambsquarters) | pest or weed control at 125 g/ha (johnsongrass; Sorghum halepense, pre-emergence, 125 g ai/ha, scale 0-100, read-out: Plant response rating, Johnsongrass)
75%: pest or weed control at 62 g/ha ([4]; Cyperus difformis, 62 g ai/ha, scale 0 to 100 (0 no effect, 100 complete control), read-out: Sedge, Umbrella plant response rating) | pest or weed control at 125 g/ha ([4]; Cyperus difformis, 125 g ai/ha, scale of 0 to 100, 0 is no effect, 100 is complete control, read-out: Sedge, Umbrella plant response rating)
45%: pest or weed control at 500 g/ha (morningglory; post-emergence, Postemergence, 500 g ai/ha, 0 to 100 scale, 0 no effect, 100 complete control, read-out: Plant response rating, Morningglory)
85%: pest or weed control at 500 g/ha (large crabgrass; post-emergence, Postemergence, 500 g ai/ha, 0 to 100 scale, 0 no effect, 100 complete control, read-out: Plant response rating, Crabgrass, Large) | pest or weed control at 250 g/ha ([4]; Cyperus difformis, 250 g ai/ha, visual rating after 12 to 14 days, scale 0 to 100 (0 no effect, 100 complete control), read-out: Plant response rating, Sedge, Umbrella)
0%: pest or weed control at 250 g/ha ([3]; Helianthus annuus, pre-emergence, 250 g ai/ha, scale 0 to 100 (0 no effect, 100 complete control), visual, 12 to 14 days, read-out: Plant response rating, Sunflower)
100: Johnsongrass plant response rating (johnsongrass; [5]) | Plant response rating (0 = no effect, 100 = complete control), Lambsquarters (lambsquarters [2]; 62 g ai/ha, preemergence) | Lambsquarters plant response rating (lambsquarters [2]; [5])
80%: pest or weed control at 2000 g/ha (morningglory; post-emergence, Postemergence, 2000 g ai/ha, 0 to 100 scale, 0 no effect, 100 complete control, read-out: Plant response rating, Morningglory) | pest or weed control at 500 g/ha (morningglory; pre-emergence, Preemergence, 500 g ai/ha, visual rating, 0 to 100 scale (0 no effect, 100 complete control), read-out: Morningglory plant response rating) | pest or weed control at 125 g/ha (lambsquarters [1]; Chenopodium album, post-emergence, 336 h, Postemergence, 125 g ai/ha, scale 0 (no effect) to 100 (complete control), read-out: Lambsquarters plant response rating)
95%: pest or weed control at 500 g/ha (giant foxtail; post-emergence, Postemergence, 500 g ai/ha, 0 to 100 scale, 0 no effect, 100 complete control, read-out: Plant response rating, Foxtail, Giant) | pest or weed control at 500 g/ha ([4]; Cyperus difformis, 500 g ai/ha, visual rating after 12 to 14 days, scale 0 to 100 (0 no effect, 100 complete control), read-out: Plant response rating, Sedge, Umbrella)
100%: pest or weed control at 2000 g/ha (large crabgrass; post-emergence, Postemergence, 2000 g ai/ha, 0 to 100 scale, 0 no effect, 100 complete control, read-out: Plant response rating, Crabgrass, Large) | pest or weed control at 500 g/ha (large crabgrass; pre-emergence, Preemergence, 500 g ai/ha, visual rating, 0 to 100 scale (0 no effect, 100 complete control), read-out: Crabgrass, Large plant response rating) | pest or weed control at 2000 g/ha (large crabgrass; pre-emergence, Preemergence, 2000 g ai/ha, 0 to 100 scale, 0 no effect, 100 complete control, read-out: Crabgrass, Large plant response rating) | pest or weed control at 2000 g/ha (giant foxtail; post-emergence, Postemergence, 2000 g ai/ha, 0 to 100 scale, 0 no effect, 100 complete control, read-out: Plant response rating, Foxtail, Giant) | pest or weed control at 500 g/ha (giant foxtail; pre-emergence, Preemergence, 500 g ai/ha, visual rating, 0 to 100 scale (0 no effect, 100 complete control), read-out: Foxtail, Giant plant response rating) | pest or weed control at 2000 g/ha (giant foxtail; pre-emergence, Preemergence, 2000 g ai/ha, 0 to 100 scale, 0 no effect, 100 complete control, read-out: Foxtail, Giant plant response rating) | pest or weed control at 2000 g/ha (morningglory; pre-emergence, Preemergence, 2000 g ai/ha, 0 to 100 scale, 0 no effect, 100 complete control, read-out: Morningglory plant response rating) | pest or weed control at 500 g/ha (lambsquarters [1]; Chenopodium album, pre-emergence, 336 h, Preemergence, 500 g ai/ha, scale 0 to 100, read-out: Lambsquarters plant response rating) | pest or weed control at 250 g/ha (johnsongrass; Sorghum halepense, pre-emergence, 250 g ai/ha, scale 0 to 100 (0 no effect, 100 complete control), visual, 12 to 14 days, read-out: Plant response rating, Johnsongrass) | pest or weed control at 125 g/ha (lambsquarters [2]; Chenopodium album, pre-emergence, 125 g ai/ha, scale 0-100, read-out: Plant response rating, Lambsquarters) | pest or weed control at 250 g/ha (lambsquarters [2]; Chenopodium album, pre-emergence, 250 g ai/ha, scale 0 to 100 (0 no effect, 100 complete control), visual, 12 to 14 days, read-out: Plant response rating, Lambsquarters)

C#CCNC(=O)c1cccc(NC(=O)c2cc(C(C)(C)C)nn2CC)c1 [Compound 47]
100: Plant response rating, Crabgrass, Large (large crabgrass; [7]) | Foxtail, Giant plant response rating (giant foxtail; [9]) | Lambsquarters plant response rating (lambsquarters [1]; Preemergence, 500 g ai/ha, scale 0 to 100) | Plant response rating, Lambsquarters (lambsquarters [1]; preemergence, 125 g ai/ha, 0 to 100 scale, 0 is no effect, 100 is complete control) | Plant response rating, Johnsongrass (johnsongrass; [10]) | Plant response rating, Johnsongrass (johnsongrass; [11]) | Johnsongrass plant response rating (johnsongrass; [5]) | Plant response rating (0 = no effect, 100 = complete control), Lambsquarters (lambsquarters [2]; 62 g ai/ha, preemergence) | Plant response rating, Lambsquarters (lambsquarters [2]; [10]) | Plant response rating, Lambsquarters (lambsquarters [2]; [11]) | Lambsquarters plant response rating (lambsquarters [2]; Postemergence, scale 0 to 100) | Plant response rating, Lambsquarters (lambsquarters [2]; [12]) | Lambsquarters plant response rating (lambsquarters [2]; [5])
80: Lambsquarters plant response rating (lambsquarters [1]; Postemergence, 125 g ai/ha, scale 0 (no effect) to 100 (complete control)) | Plant response rating, Sedge, Umbrella ([4]; 250 g ai/ha, visual rating after 12 to 14 days, scale 0 to 100 (0 no effect, 100 complete control)) | Plant response rating, Sedge, Umbrella ([4]; 500 g ai/ha, visual rating after 12 to 14 days, scale 0 to 100 (0 no effect, 100 complete control))
30: Morningglory plant response rating (morningglory; [9]) | Plant response rating, Johnsongrass (johnsongrass; Postemergence, 125 g ai/ha, scale 0 to 100, 0 no effect, 100 complete control) | Plant response rating, Johnsongrass (johnsongrass; [13]) | Sedge, Umbrella plant response rating ([4]; 62 g ai/ha, scale 0 to 100 (0 no effect, 100 complete control))
90: Crabgrass, Large plant response rating (large crabgrass; [9]) | Plant response rating, Foxtail, Giant (giant foxtail; [6]) | Foxtail, Giant plant response rating (giant foxtail; [8]) | Plant response rating, Lambsquarters (lambsquarters [1]; Postemergence, 500 g ai/ha, visual rating after 13 to 15 days, scale 0 (no effect) to 100 (complete control)) | Johnsongrass plant response rating (johnsongrass; Postemergence, scale 0 to 100) | Plant response rating, Johnsongrass (johnsongrass; [12]) | Plant response rating, Lambsquarters (lambsquarters [2]; [13])
10: Plant response rating, Sunflower ([3]; 250 g ai/ha, scale 0 to 100 (0 no effect, 100 complete control), visual, 12 to 14 days)
70: Sedge, Umbrella plant response rating ([4]; 125 g ai/ha, scale of 0 to 100, 0 is no effect, 100 is complete control)
55: Crabgrass, Large plant response rating (large crabgrass; [8])
0: Plant response rating (0 = no effect, 100 = complete control), Sunflower [3] | Plant response rating, Sunflower ([3]; 125 g ai/ha, scale 0 (no effect) to 100 (complete control), visual, 12 to 14 days)
20: Plant response rating, Morningglory (morningglory; [6]) | Morningglory plant response rating (morningglory; [8]) | Plant response rating (0 = no effect, 100 = complete control), Johnsongrass (johnsongrass; 62 g ai/ha, preemergence)
85: Plant response rating, Crabgrass, Large (large crabgrass; [6]) | Plant response rating, Foxtail, Giant (giant foxtail; [7])
40: Sunflower plant response rating [3]
25: Plant response rating, Morningglory (morningglory; [7])
